Marks after values point to notes of the source that are not given here.
System: Loblolly pine (Pinus taeda) pre-cotyledonary somatic embryos
Assay: Abscisic acid pulse during development of Loblolly pine somatic embryos
Format: cell-based
Experimental: Development: Pre-cotyledonary somatic embryos were transferred from maintenance medium into solid development medium BM3 containing 25 mg/L abscisic acid for four weeks to yield treated pre-cotyledonary somatic embryos. The development medium either lacks growth hormones entirely, or has them present only at very low levels. The further inclusion of an adsorbent composition in this medium is advantageous. The adsorbent composition is normally present at a concentration of about 0.1-5 g/L, more generally about 0.25-2.5 g/L. Gelrite was included at a concentration of about 0.25%.
After culturing pre-cotyledonary embryos on solid development medium containing 25 mg/L abscisic acid for 4 weeks, the abscisic acid-treated pre-cotyledonary embryos were transferred on a filter paper support to solid development medium without abscisic acid. The solid development medium without abscisic acid had the same composition as development medium BM3. Development is preferably carried out in complete darkness at a temperature of 22°-25 C until elongated cotyledonary embryos have developed. Development time is typically several weeks, such as 10 to 12 weeks.
Female gametophytes containing zygotic embryos were removed from seeds of genotypes A, B and C, as described in EXAMPLE 1, above. The induction and maintenance stages were as described in EXAMPLE 1.
To test the effect of a pulse of abscisic acid, pre-cotyledonary embryos were transferred to a filter paper support placed on solid development medium BM3 containing abscisic acid. Six different treatments were tested. The concentration of abscisic acid, and the time period during which the pre-cotyledonary embryos were exposed to the abscisic acid during each treatment, are shown in Table 3.
As a control, pre-cotyledonary embryos were maintained in development medium BM3 containing 25 mg/L abscisic acid for twelve weeks. After twelve weeks, both control and experimental embryos were taken through the standard post-development treatments as described in EXAMPLE 1. Germination was assessed after twelve weeks on germination media in the light at room temperature.

## CC1=CC(=O)CC(C)(C)[C@@]1(O)/C=C/C(C)=C\C(=O)O [Abscisic Acid, abscisic acid]
All genotypes combined, Control: 25 mg/L abscisic acid weeks 1-12
  Mean Dry Weight: 0.37 mg/emb
All genotypes combined, Treatment 1: 25 mg/L weeks 1-3, 0 weeks 4-12
  Mean Dry Weight: 0.49* mg/emb
All genotypes combined, Treatment 2: 25 mg/L weeks 1-5, 0 weeks 6-12
  Mean Dry Weight: 0.47* mg/emb
All genotypes combined, Treatment 3: 25 mg/L weeks 1-7, 0 weeks 8-12
  Mean Dry Weight: 0.47* mg/emb
All genotypes combined, Treatment 4: 25 mg/L weeks 1-9, 0 weeks 10-12
  Mean Dry Weight: 0.48* mg/emb
All genotypes combined, Treatment 5: 25 mg/L weeks 1-3, 15 weeks 4-5, 10 weeks 6-7, 5 weeks 8-9, 0 weeks 10-12
  Mean Dry Weight: 0.50* mg/emb
All genotypes combined, Treatment 6: 25 mg/L weeks 1-5, 15 weeks 6-7, 10 weeks 8-9, 0 weeks 10-12
  Mean Dry Weight: 0.48* mg/emb
Both control (continuous abscisic acid) and experimental (pulse) embryos
  Embryo morphology at the end of development: good morphological form, good cotyledon development, and normal color
Genotype A, Control: 25 mg/L abscisic acid weeks 1-12
  Mean Dry Weight: 0.27 mg/emb
Genotype A, Treatment 1: 25 mg/L weeks 1-3, 0 weeks 4-12
  Mean Dry Weight: 0.38* mg/emb
Genotype A, Treatment 2: 25 mg/L weeks 1-5, 0 weeks 6-12
  Mean Dry Weight: 0.36* mg/emb
Genotype A, Treatment 3: 25 mg/L weeks 1-7, 0 weeks 8-12
  Mean Dry Weight: 0.34 mg/emb
Genotype A, Treatment 4: 25 mg/L weeks 1-9, 0 weeks 10-12
  Mean Dry Weight: 0.32 mg/emb
Genotype A, Treatment 5: 25 mg/L weeks 1-3, 15 weeks 4-5, 10 weeks 6-7, 5 weeks 8-9, 0 weeks 10-12
  Mean Dry Weight: 0.36* mg/emb
Genotype A, Treatment 6: 25 mg/L weeks 1-5, 15 weeks 6-7, 10 weeks 8-9, 0 weeks 10-12
  Mean Dry Weight: 0.33 mg/emb
Genotype B, Control: 25 mg/L abscisic acid weeks 1-12
  Mean Dry Weight: 0.31 mg/emb
Genotype B, Treatment 1: 25 mg/L weeks 1-3, 0 weeks 4-12
  Mean Dry Weight: 0.32 mg/emb
Genotype B, Treatment 2: 25 mg/L weeks 1-5, 0 weeks 6-12
  Mean Dry Weight: 0.31 mg/emb
Genotype B, Treatment 3: 25 mg/L weeks 1-7, 0 weeks 8-12
  Mean Dry Weight: 0.37 mg/emb
Genotype B, Treatment 4: 25 mg/L weeks 1-9, 0 weeks 10-12
  Mean Dry Weight: 0.37 mg/emb
Genotype B, Treatment 5: 25 mg/L weeks 1-3, 15 weeks 4-5, 10 weeks 6-7, 5 weeks 8-9, 0 weeks 10-12
  Mean Dry Weight: 0.36 mg/emb
Genotype B, Treatment 6: 25 mg/L weeks 1-5, 15 weeks 6-7, 10 weeks 8-9, 0 weeks 10-12
  Mean Dry Weight: 0.36 mg/emb
Genotype C, Control: 25 mg/L abscisic acid weeks 1-12
  Mean Dry Weight: 0.55 mg/emb
Genotype C, Treatment 1: 25 mg/L weeks 1-3, 0 weeks 4-12
  Mean Dry Weight: 0.79* mg/emb
Genotype C, Treatment 2: 25 mg/L weeks 1-5, 0 weeks 6-12
  Mean Dry Weight: 0.80* mg/emb
Genotype C, Treatment 3: 25 mg/L weeks 1-7, 0 weeks 8-12
  Mean Dry Weight: 0.69 mg/emb
Genotype C, Treatment 4: 25 mg/L weeks 1-9, 0 weeks 10-12
  Mean Dry Weight: 0.76* mg/emb
Genotype C, Treatment 5: 25 mg/L weeks 1-3, 15 weeks 4-5, 10 weeks 6-7, 5 weeks 8-9, 0 weeks 10-12
  Mean Dry Weight: 0.90* mg/emb
Genotype C, Treatment 6: 25 mg/L weeks 1-5, 15 weeks 6-7, 10 weeks 8-9, 0 weeks 10-12
  Mean Dry Weight: 0.84* mg/emb
Pulse treatments versus control with 25 mg/L abscisic acid for twelve weeks
  Dry weight of embryos receiving the abscisic acid pulse versus control embryos: higher dry weight than the control embryos
